Measured values as given in ChEMBL document CHEMBL1909046, “DrugMatrix in vitro pharmacology data”.

How the values were obtained:
[1] = DRUGMATRIX: Platelet-Derived Growth Factor (PDGF) radioligand binding (ligand: [125I] PDGF); assay type: cell-based; conditions: nih3t3; Not Active = under 50% inhibition at 10 µM
Cytochrome P450 1A2 = target: T1, Cytochrome P450 1A2 (Homo sapiens, UniProt P05177); conditions: bti-tn-5b1-4; further: in other assays of this panel Not Active means under 50% inhibition at 10 µM
T1 sequence (P05177 whole entry): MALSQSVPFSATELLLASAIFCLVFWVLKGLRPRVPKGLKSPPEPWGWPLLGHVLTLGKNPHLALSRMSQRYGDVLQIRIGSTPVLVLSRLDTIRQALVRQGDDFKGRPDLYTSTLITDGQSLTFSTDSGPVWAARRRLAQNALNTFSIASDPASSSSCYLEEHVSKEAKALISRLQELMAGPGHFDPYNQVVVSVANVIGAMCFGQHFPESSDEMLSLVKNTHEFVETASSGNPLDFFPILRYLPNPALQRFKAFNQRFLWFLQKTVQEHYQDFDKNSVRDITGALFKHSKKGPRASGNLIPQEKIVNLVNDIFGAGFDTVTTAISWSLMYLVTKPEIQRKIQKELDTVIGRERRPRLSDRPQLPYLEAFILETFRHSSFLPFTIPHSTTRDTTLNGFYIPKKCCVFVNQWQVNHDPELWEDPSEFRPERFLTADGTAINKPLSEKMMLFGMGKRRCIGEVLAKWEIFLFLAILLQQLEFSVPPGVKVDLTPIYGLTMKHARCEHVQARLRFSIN

[2] = DRUGMATRIX: Interleukin IL-1 radioligand binding (ligand: [125I] interleukin 1beta); assay type: cell membranes, Membrane; conditions: nih3t3; Not Active = under 50% inhibition at 10 µM
Melanocortin receptor 5 = Melanocortin receptor 5 (Homo sapiens, UniProt P33032); assay type: cell membranes, Membrane; conditions: hek293; further: in other assays of this panel Not Active means under 50% inhibition at 10 µM
[3] = DRUGMATRIX: Glutamate, NMDA, Agonism radioligand binding (ligand: [3H] CGP-39653); assay type: cell membranes, Rattus norvegicus, Wistar, Cerebral cortex, Membrane; conditions: Not Active = under 50% inhibition at 10 µM
[4] = target: T2, Type-2 angiotensin II receptor (Homo sapiens, UniProt P50052); assay type: cell-based; conditions: cho-k1; further: in other assays of this panel Not Active means under 50% inhibition at 10 µM
T2 sequence (P50052 whole entry): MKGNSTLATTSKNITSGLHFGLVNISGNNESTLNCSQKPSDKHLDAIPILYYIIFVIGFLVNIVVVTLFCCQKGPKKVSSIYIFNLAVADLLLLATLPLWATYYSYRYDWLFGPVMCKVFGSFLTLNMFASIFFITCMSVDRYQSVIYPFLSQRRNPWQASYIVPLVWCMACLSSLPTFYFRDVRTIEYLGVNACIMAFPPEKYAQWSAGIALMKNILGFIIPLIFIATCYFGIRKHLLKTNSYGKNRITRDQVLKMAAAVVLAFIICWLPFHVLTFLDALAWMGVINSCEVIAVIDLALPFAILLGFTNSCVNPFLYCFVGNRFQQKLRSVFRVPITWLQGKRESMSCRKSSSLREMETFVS

[5] = target: T3, Alpha-1B adrenergic receptor (Rattus norvegicus, UniProt P15823); assay: DRUGMATRIX: Alpha-1B adrenergic receptor radioligand binding (ligand: prazosin); assay type: cell membranes, Wistar, Liver, Membrane; conditions: Not Active = under 50% inhibition at 10 µM
T3 sequence (P15823 whole entry): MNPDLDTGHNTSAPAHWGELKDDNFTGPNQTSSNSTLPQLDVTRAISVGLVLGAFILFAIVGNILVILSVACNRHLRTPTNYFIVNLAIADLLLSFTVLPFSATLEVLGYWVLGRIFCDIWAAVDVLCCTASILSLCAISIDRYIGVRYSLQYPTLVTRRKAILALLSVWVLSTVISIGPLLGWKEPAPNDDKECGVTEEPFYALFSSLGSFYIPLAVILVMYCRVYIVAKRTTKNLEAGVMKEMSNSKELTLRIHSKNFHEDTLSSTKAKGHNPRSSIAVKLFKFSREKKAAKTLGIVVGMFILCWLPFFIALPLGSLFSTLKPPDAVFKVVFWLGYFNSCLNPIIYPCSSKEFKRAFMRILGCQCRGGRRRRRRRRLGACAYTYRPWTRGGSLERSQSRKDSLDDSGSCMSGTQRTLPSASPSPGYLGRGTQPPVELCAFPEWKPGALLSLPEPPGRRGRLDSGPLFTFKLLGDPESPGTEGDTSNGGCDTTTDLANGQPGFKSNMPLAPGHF

Acetylcholinesterase = Acetylcholinesterase (Homo sapiens, UniProt P22303); assay: DRUGMATRIX: Acetylcholinesterase enzyme inhibition (substrate: acetylthiocholine); assay type: cell-based, HEK293; conditions: hek293; Not Active = under 50% inhibition at 10 µM
Acetylcholinesterase, sequence (P22303 whole entry): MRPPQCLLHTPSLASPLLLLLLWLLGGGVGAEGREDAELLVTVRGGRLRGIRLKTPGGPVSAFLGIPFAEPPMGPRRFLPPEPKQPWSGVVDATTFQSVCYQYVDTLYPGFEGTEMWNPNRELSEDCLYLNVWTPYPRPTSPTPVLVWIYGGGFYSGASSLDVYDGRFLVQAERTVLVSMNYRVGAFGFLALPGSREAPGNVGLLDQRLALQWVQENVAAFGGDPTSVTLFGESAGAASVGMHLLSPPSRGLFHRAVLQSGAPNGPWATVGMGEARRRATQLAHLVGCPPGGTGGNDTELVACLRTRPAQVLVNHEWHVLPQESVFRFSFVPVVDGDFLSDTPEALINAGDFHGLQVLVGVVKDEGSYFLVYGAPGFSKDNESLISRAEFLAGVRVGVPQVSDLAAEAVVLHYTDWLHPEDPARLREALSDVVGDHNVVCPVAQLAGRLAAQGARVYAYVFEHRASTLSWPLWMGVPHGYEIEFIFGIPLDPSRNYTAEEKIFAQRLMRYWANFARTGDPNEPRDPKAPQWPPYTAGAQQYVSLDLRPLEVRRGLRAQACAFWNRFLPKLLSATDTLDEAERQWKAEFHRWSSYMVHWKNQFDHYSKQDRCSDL

Melanocortin receptor 5, sequence (P33032 whole entry): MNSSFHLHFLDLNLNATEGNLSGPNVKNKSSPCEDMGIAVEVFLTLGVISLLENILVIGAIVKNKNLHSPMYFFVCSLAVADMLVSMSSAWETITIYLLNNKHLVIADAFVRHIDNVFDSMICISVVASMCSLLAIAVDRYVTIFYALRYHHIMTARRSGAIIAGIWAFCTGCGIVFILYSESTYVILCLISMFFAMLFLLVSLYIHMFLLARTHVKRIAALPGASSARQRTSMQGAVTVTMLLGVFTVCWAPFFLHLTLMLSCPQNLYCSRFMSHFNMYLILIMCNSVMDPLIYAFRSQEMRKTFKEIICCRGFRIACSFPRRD

COc1ccc2[nH]c([S+]([O-])Cc3ncc(C)c(OC)c3C)nc2c1 (stereo not drawn) [OMEPRAZOLE]
Not Active: IC50 [1] | Ki [1] | IC50 (Cytochrome P450 1A2) | Ki (Cytochrome P450 1A2) | IC50 [2] | Ki [2] | IC50 (Melanocortin receptor 5) | IC50 [3] | Ki [3] | IC50 [4] | IC50 [5] | IC50 (Acetylcholinesterase)

Cc1nccn1CC1CCc2c(c3ccccc3n2C)C1=O (stereo not drawn) [ONDANSETRON]
Not Active: IC50 [1] | Ki [1] | IC50 (Cytochrome P450 1A2) | Ki (Cytochrome P450 1A2) | IC50 [2] | Ki [2] | IC50 (Melanocortin receptor 5) | IC50 [3] | Ki [3] | IC50 [4] | IC50 [5] | IC50 (Acetylcholinesterase)

CCCCOc1ccc(OCCCN2CCOCC2)cc1 [PRAMOXINE]
Not Active: IC50 [1] | Ki [1] | IC50 (Cytochrome P450 1A2) | Ki (Cytochrome P450 1A2) | IC50 [2] | Ki [2] | IC50 (Melanocortin receptor 5) | IC50 [3] | Ki [3] | IC50 [4] | IC50 [5] | IC50 (Acetylcholinesterase)

O=C(C1CCCCC1)N1CC(=O)N2CCc3ccccc3C2C1 (stereo not drawn) [PRAZIQUANTEL]
Not Active: IC50 [1] | Ki [1] | IC50 (Cytochrome P450 1A2) | Ki (Cytochrome P450 1A2) | IC50 [2] | Ki [2] | IC50 (Melanocortin receptor 5) | IC50 [3] | Ki [3] | IC50 [4] | IC50 [5] | IC50 (Acetylcholinesterase)

CCN(CC)CCOC(=O)c1ccc(N)cc1 [PROCAINE]
Not Active: IC50 [1] | Ki [1] | IC50 (Cytochrome P450 1A2) | Ki (Cytochrome P450 1A2) | IC50 [2] | Ki [2] | IC50 (Melanocortin receptor 5) | IC50 [3] | Ki [3] | IC50 [4] | IC50 [5] | IC50 (Acetylcholinesterase)

CCCN(CCC)C(=O)C(CCC(=O)O)NC(=O)c1ccccc1 (stereo not drawn) [PROGLUMIDE]
Not Active: IC50 [1] | Ki [1] | IC50 (Cytochrome P450 1A2) | Ki (Cytochrome P450 1A2) | IC50 [2] | Ki [2] | IC50 (Melanocortin receptor 5) | IC50 [3] | Ki [3] | IC50 [4] | IC50 [5] | IC50 (Acetylcholinesterase)

NC(=O)c1cnccn1 [PYRAZINAMIDE]
Not Active: IC50 [1] | Ki [1] | IC50 (Cytochrome P450 1A2) | Ki (Cytochrome P450 1A2) | IC50 [2] | Ki [2] | IC50 (Melanocortin receptor 5) | IC50 [3] | Ki [3] | IC50 [4] | IC50 [5] | IC50 (Acetylcholinesterase)

OC(CCN1CCCCC1)(c1ccccc1)C1CCCCC1 (stereo not drawn) [TRIHEXYPHENIDYL]
Not Active: IC50 [1] | Ki [1] | IC50 (Cytochrome P450 1A2) | Ki (Cytochrome P450 1A2) | IC50 [2] | Ki [2] | IC50 (Melanocortin receptor 5) | IC50 [3] | Ki [3] | IC50 [4] | IC50 [5] | IC50 (Acetylcholinesterase)

Cc1cc2cc3c(C)cc(=O)oc3c(C)c2o1 [TRIOXSALEN]
Not Active: IC50 [1] | Ki [1] | IC50 (Cytochrome P450 1A2) | Ki (Cytochrome P450 1A2) | IC50 [2] | Ki [2] | IC50 (Melanocortin receptor 5) | IC50 [3] | Ki [3] | IC50 [4] | IC50 [5] | IC50 (Acetylcholinesterase)

CCCC(CCC)C(=O)O [VALPROIC ACID]
Not Active: IC50 [1] | Ki [1] | IC50 (Cytochrome P450 1A2) | Ki (Cytochrome P450 1A2) | IC50 [2] | Ki [2] | IC50 (Melanocortin receptor 5) | IC50 [3] | Ki [3] | IC50 [4] | IC50 [5] | IC50 (Acetylcholinesterase)

CCC1=C[C@@H]2CN(C1)Cc1c([nH]c3ccccc13)[C@@](C(=O)OC)(c1cc3c(cc1OC)N(C)[C@H]1[C@@](O)(C(=O)OC)[C@H](OC(C)=O)[C@]4(CC)C=CCN5CC[C@]31[C@@H]54)C2 [VINORELBINE]
Not Active: IC50 [1] | Ki [1] | IC50 (Cytochrome P450 1A2) | Ki (Cytochrome P450 1A2) | IC50 [2] | Ki [2] | IC50 (Melanocortin receptor 5) | IC50 [3] | Ki [3] | IC50 [4] | IC50 [5] | IC50 (Acetylcholinesterase)

CADMIUM DICHLORIDE
Not Active: IC50 [1] | Ki [1] | IC50 (Cytochrome P450 1A2) | Ki (Cytochrome P450 1A2) | IC50 [2] | Ki [2] | IC50 (Melanocortin receptor 5) | Ki (Melanocortin receptor 5) | IC50 [3] | Ki [3] | IC50 [4] | Ki [4] | IC50 [5] | Ki [5] | IC50 (Acetylcholinesterase) | Ki (Acetylcholinesterase)
